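Method: 48-hour compound exposure of cells in 96-well plates, five concentrations, linear interpolation of endpoints. Here, GI50 denotes the concentration required for 50% inhibition of growth.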 Calls of active or inactive are those of the source. Rule as the data show it: active = GI50 up to about 1.1 µM and inactive = higher.
Tests used:
Assay in all cases: inhibition of tumour cell growth, NCI panel, 48 h
786-0 = system: 786-0
A498 = system: A498
A549 = system: A549
ACHN = system: ACHN
BT-549 = system: BT-549
CAKI-1 = system: CAKI-1
CCRF-CEM = system: CCRF-CEM
COLO 205 = system: COLO 205
DU-145 = system: DU-145
EKVX = system: EKVX
HCC 2998 = system: HCC 2998
HCT-116 = system: HCT-116
HCT-15 = system: HCT-15
HL-60 = system: HL-60
HOP-62 = system: HOP-62
HT-29 = system: HT-29
Hs-578T = system: Hs-578T
IGROV-1 = system: IGROV-1
K562 = system: K562
KM12 = system: KM12
LOX IMVI = system: LOX IMVI
M14 = system: M14
MCF7 = system: MCF7
MDA-MB-231 = system: MDA-MB-231
MDA-MB-435 = system: MDA-MB-435
MDA-N = system: MDA-N
MOLT-4 = system: MOLT-4
Malme-3M = system: Malme-3M
NCI-H226 = system: NCI-H226
NCI-H23 = system: NCI-H23
NCI-H460 = system: NCI-H460
NCI-H522 = system: NCI-H522
NCI/ADR-RES = system: NCI/ADR-RES
OVCAR-3 = system: OVCAR-3
OVCAR-4 = system: OVCAR-4
OVCAR-5 = system: OVCAR-5
OVCAR-8 = system: OVCAR-8
PC-3 = system: PC-3
RPMI-8226 = system: RPMI-8226
RXF 393 = system: RXF 393
SF-268 = system: SF-268
SF-295 = system: SF-295
SF-539 = system: SF-539
SK-MEL-28 = system: SK-MEL-28
SK-MEL-2 = system: SK-MEL-2
SK-MEL-5 = system: SK-MEL-5
SK-OV-3 = system: SK-OV-3
SN12C = system: SN12C
SNB-19 = system: SNB-19
SNB-75 = system: SNB-75
SR = system: SR
SW-620 = system: SW-620
T47D = system: T47D
TK-10 = system: TK-10
U-251 = system: U-251
UACC-257 = system: UACC-257
UACC-62 = system: UACC-62
HOP-92 = system: HOP-92
UO-31 = system: UO-31

## COc1cc([C@@H]2c3cc4c(cc3[C@@H](/N=C/c3ccc(C(=O)O[C@H]5C[C@H]6OC[C@@]6(OC(C)=O)[C@H]6[C@H](OC(=O)c7ccccc7)[C@]7(O)C[C@H](OC(=O)[C@H](OC(=O)c8ccc(/C=N/[C@@H]9c%10cc%11c(cc%10[C@@H](c%10cc(OC)c(O)c(OC)c%10)[C@H]%10C(=O)OC[C@@H]%109)OCO%11)cc8)[C@@H](NC(=O)c8ccccc8)c8ccccc8)C(C)=C([C@@H](OC(C)=O)C(=O)[C@]56C)C7(C)C)cc3)C3COC(=O)C32)OCO4)cc(C)c1O (some centres not stated)
786-0
  GI50: 7.55 µM (inactive)
A498
  GI50: 5.16 µM (inactive)
A549
  GI50: 13.7 µM (inactive)
ACHN
  GI50: 20.8 µM (inactive)
BT-549
  GI50: 49.7 µM (inactive)
CAKI-1
  GI50: 12.8 µM (inactive)
CCRF-CEM
  GI50: 30 µM (inactive)
COLO 205
  GI50: 19.6 µM (inactive)
DU-145
  GI50: 24.5 µM (inactive)
EKVX
  GI50: 14.5 µM (inactive)
HCC 2998
  GI50: > 50 µM (inactive)
HCT-116
  GI50: 9.08 µM (inactive)
HCT-15
  GI50: 19.2 µM
HL-60
  GI50: > 13.9 µM (inactive)
HOP-62
  GI50: 12.7 µM (inactive)
HT-29
  GI50: 10.9 µM (inactive)
Hs-578T
  GI50: > 46 µM (inactive)
IGROV-1
  GI50: 14.7 µM (inactive)
K562
  GI50: 2.19 µM (inactive)
KM12
  GI50: 22.3 µM (inactive)
LOX IMVI
  GI50: 22.9 µM (inactive)
M14
  GI50: 6.49 µM (inactive)
MCF7
  GI50: 7.6 µM (inactive)
MDA-MB-231
  GI50: > 25.2 µM (inactive)
MDA-MB-435
  GI50: 2.33 µM (inactive)
MDA-N
  GI50: 1.82 µM (inactive)
MOLT-4
  GI50: 16.3 µM (inactive)
Malme-3M
  GI50: > 24 µM (inactive)
NCI-H226
  GI50: 10.9 µM (inactive)
NCI-H23
  GI50: 17.2 µM (inactive)
NCI-H460
  GI50: 15.3 µM (inactive)
NCI-H522
  GI50: 9.06 µM (inactive)
NCI/ADR-RES
  GI50: 15.2 µM (inactive)
OVCAR-3
  GI50: 6.85 µM (inactive)
OVCAR-4
  GI50: > 29.6 µM (inactive)
OVCAR-5
  GI50: > 15.5 µM (inactive)
OVCAR-8
  GI50: 17.9 µM (inactive)
PC-3
  GI50: 6.58 µM (inactive)
RPMI-8226
  GI50: > 50 µM (inactive)
RXF 393
  GI50: 2.96 µM (inactive)
SF-268
  GI50: > 31.5 µM (inactive)
SF-295
  GI50: 5.07 µM (inactive)
SF-539
  GI50: 7.23 µM (inactive)
SK-MEL-28
  GI50: > 18.1 µM (inactive)
SK-MEL-2
  GI50: 13.7 µM (inactive)
SK-MEL-5
  GI50: 5.28 µM (inactive)
SK-OV-3
  GI50: 9.2 µM (inactive)
SN12C
  GI50: 18.8 µM (inactive)
SNB-19
  GI50: 17.5 µM (inactive)
SNB-75
  GI50: 4.25 µM (inactive)
SR
  GI50: 8.02 µM (inactive)
SW-620
  GI50: 13.4 µM (inactive)
T47D
  GI50: > 50 µM (inactive)
TK-10
  GI50: > 50 µM (inactive)
U-251
  GI50: 13.3 µM (inactive)
UACC-257
  GI50: 26.2 µM (inactive)
UACC-62
  GI50: 6.32 µM (inactive)

## CCOC(=O)C1C(c2ccc(OC)cc2)c2c(n[nH]c2O)CC1(C)O (configuration not stated)
786-0
  GI50: > 100 µM (inactive)
A498
  GI50: > 100 µM (inactive)
A549
  GI50: > 100 µM (inactive)
ACHN
  GI50: > 100 µM (inactive)
BT-549
  GI50: > 100 µM (inactive)
CAKI-1
  GI50: > 100 µM (inactive)
CCRF-CEM
  GI50: > 100 µM (inactive)
COLO 205
  GI50: > 100 µM (inactive)
DU-145
  GI50: > 100 µM (inactive)
EKVX
  GI50: > 100 µM (inactive)
HCC 2998
  GI50: > 100 µM (inactive)
HCT-116
  GI50: > 100 µM (inactive)
HCT-15
  GI50: > 100 µM
HL-60
  GI50: > 100 µM (inactive)
HOP-62
  GI50: > 100 µM (inactive)
HOP-92
  GI50: > 100 µM (inactive)
HT-29
  GI50: > 100 µM (inactive)
Hs-578T
  GI50: > 100 µM (inactive)
IGROV-1
  GI50: > 100 µM (inactive)
KM12
  GI50: > 100 µM (inactive)
LOX IMVI
  GI50: > 100 µM (inactive)
M14
  GI50: > 100 µM (inactive)
MCF7
  GI50: > 100 µM (inactive)
MDA-MB-231
  GI50: > 100 µM (inactive)
MDA-MB-435
  GI50: > 100 µM (inactive)
MDA-N
  GI50: > 100 µM (inactive)
MOLT-4
  GI50: > 100 µM (inactive)
Malme-3M
  GI50: > 100 µM (inactive)
NCI-H23
  GI50: > 100 µM (inactive)
NCI-H460
  GI50: > 100 µM (inactive)
NCI-H522
  GI50: > 100 µM (inactive)
NCI/ADR-RES
  GI50: > 100 µM (inactive)
OVCAR-3
  GI50: > 100 µM (inactive)
OVCAR-4
  GI50: > 100 µM (inactive)
OVCAR-5
  GI50: > 100 µM (inactive)
OVCAR-8
  GI50: > 100 µM (inactive)
PC-3
  GI50: > 100 µM (inactive)
RPMI-8226
  GI50: > 100 µM (inactive)
SF-268
  GI50: > 100 µM (inactive)
SF-295
  GI50: 45.1 µM (inactive)
SF-539
  GI50: > 100 µM (inactive)
SK-MEL-28
  GI50: > 100 µM (inactive)
SK-MEL-2
  GI50: > 100 µM (inactive)
SK-MEL-5
  GI50: > 100 µM (inactive)
SN12C
  GI50: > 100 µM (inactive)
SNB-19
  GI50: > 100 µM (inactive)
SNB-75
  GI50: > 100 µM (inactive)
SR
  GI50: > 100 µM (inactive)
SW-620
  GI50: > 100 µM (inactive)
T47D
  GI50: > 100 µM (inactive)
TK-10
  GI50: > 100 µM (inactive)
U-251
  GI50: > 100 µM (inactive)
UACC-257
  GI50: > 100 µM (inactive)
UACC-62
  GI50: > 100 µM (inactive)
UO-31
  GI50: > 100 µM (inactive)

— ChEMBL document CHEMBL1201862, “PubChem BioAssay data set” (2004)
